In ChEMBL document CHEMBL1133051, “Design and synthesis of a novel water soluble benzotetrazepinone” (Bioorg Med Chem Lett, 2000):

Test system: MCF7
Experiment: Inhibitory concentration of compound against Mer+ breast tumor cell line MCF-7
Assay type: functional, cell-based
Conditions: Homo sapiens

Row | IC50 [µM] | Structure (SMILES)
1 | 80 | CN1N=Nc2cc(C(=O)NCCN3CCOCC3)ccc2N(C)C1=O
2 | 800 | Cn1nnc2c(C(N)=O)ncn2c1=O [TEMOZOLOMIDE]
